Experiments:
[1] = system: CD-1 mouse sciatic nerve and surrounding muscle and adipose tissues; assay: Ex vivo tissue section staining, imaging and fluorescence quantification; conditions: 100 μM, 40 min, sections with nerve, muscle, adipose
Procedure: Cryosections of CD-1 mouse sciatic nerve and surrounding muscle and adipose tissues from unrelated experiments were cut from optimal cutting temperature (OCT, Fisher Scientific, Hampton, N.H.) embedded frozen tissues. Cryosectioned tissues were captured on superfrost plus slides (Fisher Scientific) at 10 μm thickness. The tissue sections were washed with 1×PBS for 2 minutes to remove OCT, and then fixed with 2% PFA for 15 mins. The tissue sections were then washed with 0.1% Tween 20 in 1×PBS (3×5 mins), followed by incubation with 100 μM of Nile Red and each Nile Red derivative formulated using 10% DMSO, 5% Kolliphore (Sigma Aldrich, St. Louis, Mo.), 63.75% FBS, and 21.25% 1× PBS as previously described.^26 Tissue sections were incubated with the formulated fluorophores for 40 minutes at room temperature, followed by washing with blank formulation not containing fluorophore (2×5 mins). Each tissue section was then washed with 1×PBS (2×5 mins), fixed for 15 minutes using 2% PFA, followed by a final wash with 1×PBS for 5 mins before mounting in glycerol (Fisher Scientific). Images were collected at an exposure time of 650 ms for all Nile Red and Nile Red derivative stained sections. Four tissue sections were stained for Nile Red and each Nile Red derivative, facilitating adipose to muscle and adipose to nerve contrast ratio quantification where tissue intensities were quantified using region of interest analysis with custom written MatLab code (The MathWorks, Natick, Mass.). For each tissue type, a representative area was selected, where a threshold based mask was set to determine tissue from background. The mean tissue intensity was calculated in adipose, nerve and muscle tissues as the intensity per second and used to calculate the adipose to nerve and adipose to muscle contrast ratios. All ex vivo and cellular fluorescence and white light images were collected using a Zeiss AxioObserver inverted fluorescence microscope (Carl Zeiss, Oberkochen, Germany). All cell images were collected at 40× magnification and all tissue section images were collected at 10× magnification. Fluorescence excitation was completed using a Photofluor II broad band light source (89 North, Burlington, Vt.) filtered with a 545±12.5 nm bandpass excitation filter. Fluorescence images were collected using a 605±35 nm bandpass emission filter and a AxioCam 506 monochromo camera (Zeiss). All Filters were Purchased from Chroma Technologies (Bellows Falls, Vt.).

[2] = system: sciatic nerve or brachial plexus nerve sites (adipose, nerve, muscle tissue); assay: In vivo imaging following direct/topical administration on rodent nerve sites; design: species or system male CD-1 mice; conditions: immediately following direct administration
Text: In vivo images were acquired using a previously published, custom-built small animal fluorescence imaging system, described briefly here.^27 Fluorescent images were obtained using a Qimaging EXi Blue monochrome camera (Surrey, British Columbia, CA) with a removable Bayer mask for collection of co-registered color and fluorescence images. A Photofluor II broad band light source (89 North) was expanded onto the surgical field through a liquid light guide and used unfiltered for white light illumination. Nile Red and NR5 were excitated using a 545 t 12.5 nm bandpass filter, while fluorescence emission images were collected with a 605±35 nm bandpass filter. Oxazine 4 (Exciton, West Chester, Ohio) was used for nerve and adipose co-staining and ratiometic imaging studies. Oxazine 4 was excited using a 620±30 nm bandpass filter, while fluorescence emission images were collected through a 700±37.5 nm bandpass filter. Approval for the use of animals in the study was obtained from the Institutional Animal Care and Use Committee (IACUC) at Oregon Health and Science University (OHSU). In vivo staining studies were carried out on male CD-1 mice using an optimized direct/topical administration protocol.^2 Staining was performed concurrently on no more than two nerve sites (sciatic nerve or brachial plexus) per mouse. Nile Red and all Nile Red derivatives were formulated in a previously published co-solvent formulation (10% DMSO, 5% Kolliphor, 63.75% serum and 21.25% PBS^14) at a final concentration of 100 μM. Each formulated fluorophore was incubated for 5 minutes on the nerve site (n=4 nerve sites/fluorophore), followed by 9 short flushes with PBS. The nerve site was then incubated with blank co-solvent not containing fluorophore for 5 minutes, followed again by 9 short flushes with PBS.

[3] = Spectroscopic analysis: absorbance, emission and quantum yield of Nile Red derivatives; format: physicochemical; conditions: in DMSO
Procedure: Tandem liquid chromatography mass spectroscopy (LCMS) analysis (Agilent 1260 LC system with a 6224 time of flight (TOF) MS, Agilent, Santa Clara, Calif.) was performed using a 2.7 micron C18 column (4.6×50 mm, Agilent). High performance liquid chromatography (HPLC) purification (Agilent 1260 system with a preparative pump) was performed using a 5 micron C18 column (21.2×150 mm, Agilent). For both HPLC and LCMS, the mobile phase consisted of HPLC grade acetonitrile and water, treated with 0.1% formic acid. Spectroscopic analysis was performed on a Spectramax M5 spectrometer (Molecular Devices, Sunnyvale, Calif.) using a quartz cuvette with a 1 cm pathlength. Quantum yield was calculated according to equation (1).
Where Ø is the quantum yield, F is the integrated fluorescence intensity, f is the absorbance at the excitation wavelength and n is the refractive index of the solvent. S refers to the quantum yield standard (Rhodamine B)^25 and X refers to the unknown sample.

[4] = system: U2OS human osteosarcoma cell line; assay: Nile Red derivative cell staining and imaging, fixed and live cells; format: cell-based; conditions: U2OS live, 1 μM, 5 min, imaged in staining solution
Procedure: The U2OS human osteosarcoma cell line was cultured in Dulbecco's Modified Eagle Medium (DMEM, Thermo Fisher Scientific, Waltham, Mass.) with 10% fetal bovine serum (FBS, VWR, Radnor, Pa.) and 1% Penicillin/Steptomycin 100× (Thermo Fisher Scientific) at 37° C. in 5% CO2. For live cell imaging studies, Fluorobrite DMEM media (Thermo Fisher Scientific) was used in place of DMEM. For imaging studies, cells were grown in 96-well glass bottom plates (Cellvis, Mountain View, Calif.) for 48 hours, with a final confluence of <80%. Nile Red and its derivatives were prepared at 1-10 mM stock concentration in DMSO and diluted into media or buffer for cell staining and imaging studies.
Cell staining studies were completed on fixed and live U2OS cells using Nile Red and each synthesized Nile Red derivative described as follows. For fixed cell staining, cells were washed once with 1× phosphate buffered saline (PBS), then fixed with 4% paraformaldehyde (PFA) for 20 minutes at room temperature. The PFA was removed and each well was washed three times for 5 mins per wash (3×5 mins) with 1×PBS. The Nile Red fluorophores were diluted into 1×PBS to a final concentration of 1 μM, incubated for 5 minutes with the cells, and images were collected without washing. Live cell staining was completed using two methods. First, cells were washed once with Fluorobrite DMEM. The Nile Red fluorophore solution was prepared in Fluorobrite DMEM by diluting to a final concentration of 1 μM for staining, where cells were stained for 5 minutes. The fluorophore containing media was removed and the cells were fixed for 20 minutes using 4% PFA. Cells were then washed 3×5 mins with Fluorobrite DMEM prior to imaging. Second, cells were washed with Fluorobrite DMEM without FBS once for 5 minutes. Nile Red fluorophore solutions were prepared in Fluorobrite without FBS at 1 μM final concentration for cell staining. The cells were stained with the prepared solution for 5 minutes and imaged in the staining solution. All images were collected at their ideal exposure times to permit visualization of stained intracellular structures.
All ex vivo and cellular fluorescence and white light images were collected using a Zeiss AxioObserver inverted fluorescence microscope (Carl Zeiss, Oberkochen, Germany). All cell images were collected at 40× magnification and all tissue section images were collected at 10× magnification. Fluorescence excitation was completed using a Photofluor II broad band light source (89 North, Burlington, Vt.) filtered with a 545±12.5 nm bandpass excitation filter. Fluorescence images were collected using a 605±35 nm bandpass emission filter and a AxioCam 506 monochromo camera (Zeiss). All Filters were Purchased from Chroma Technologies (Bellows Falls, Vt.).

CCN(CC)c1ccc2nc3c4cc(-c5ccc(C#N)cc5)ccc4c(=O)cc-3oc2c1 [NR12, 4-(9-(diethylamino)-5-oxo-5H-benzo[a]phenoxazin-2-yl)benzonitrile]
tissue staining specificity on mouse tissue sections [1]: adipose specificity | adipose to muscle ratio [2]: lower than Nile Red, adipose to muscle contrast was similar | adipose to nerve ratio [2]: increased contrast over control autofluorescence with similar adipose to nerve contrast | Max Abs [3]: 560 nm | Max Em [3]: 635 nm | Stokes Shift [3]: 75 nm | structures observed in live cells without washing [4]: Prominent lipid droplet like structures
